Test results as given in ChEMBL document CHEMBL1201862, “PubChem BioAssay data set” (2004).
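Five concentrations, 48 hours, 96-well plates. GI50: concentration for 50% inhibition of growth.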 Active and inactive are the calls of the source. No stated cut-off is given here; in the data, active = GI50 up to about 1.1 µM and inactive = higher.

Tests used:
Experiment in all cases: NCI-60 cell line screen, 48 h
[1] = tested on: 786-0
[2] = tested on: A498
[3] = tested on: A549
[4] = tested on: ACHN
[5] = tested on: BT-549
[6] = tested on: CAKI-1
[7] = tested on: CCRF-CEM
[8] = tested on: COLO 205
[9] = tested on: DU-145
[10] = tested on: EKVX
[11] = tested on: HCC 2998
[12] = tested on: HCT-116
[13] = tested on: HCT-15
[14] = tested on: HL-60
[15] = tested on: HOP-62
[16] = tested on: HOP-92
[17] = tested on: HT-29
[18] = tested on: Hs-578T
[19] = tested on: IGROV-1
[20] = tested on: K562
[21] = tested on: KM12
[22] = tested on: LOX IMVI
[23] = tested on: M14
[24] = tested on: MCF7
[25] = tested on: MDA-MB-231
[26] = tested on: MDA-MB-435
[27] = tested on: MDA-N
[28] = tested on: MOLT-4
[29] = tested on: Malme-3M
[30] = tested on: NCI-H226
[31] = tested on: NCI-H23
[32] = tested on: NCI-H460
[33] = tested on: NCI-H522
[34] = tested on: NCI/ADR-RES
[35] = tested on: OVCAR-3
[36] = tested on: OVCAR-4
[37] = tested on: OVCAR-5
[38] = tested on: OVCAR-8
[39] = tested on: PC-3
[40] = tested on: RPMI-8226
[41] = tested on: RXF 393
[42] = tested on: SF-268
[43] = tested on: SF-295
[44] = tested on: SF-539
[45] = tested on: SK-MEL-28
[46] = tested on: SK-MEL-2
[47] = tested on: SK-MEL-5
[48] = tested on: SK-OV-3
[49] = tested on: SN12C
[50] = tested on: SNB-19
[51] = tested on: SR
[52] = tested on: SW-620
[53] = tested on: T47D
[54] = tested on: TK-10
[55] = tested on: U-251
[56] = tested on: UACC-257
[57] = tested on: UACC-62
[58] = tested on: UO-31

c1ccc(-c2cc(-c3cc(-c4ccccc4)no3)on2)cc1 was tested, and the GI50 [1] was 72.1 µM (inactive), the GI50 [2] was > 100 µM (inactive) and the GI50 [3] was 53.2 µM (inactive). The GI50 [4] was 29.3 µM (inactive), the GI50 [5] was > 100 µM (inactive) and the GI50 [6] was > 100 µM (inactive). The GI50 [7] was 27.4 µM (inactive), the GI50 [8] was 45.6 µM (inactive) and the GI50 [9] was > 100 µM (inactive). The GI50 [10] was 72.6 µM (inactive), the GI50 [11] was > 100 µM (inactive) and the GI50 [12] was 55.8 µM (inactive). For the same molecule, the GI50 [13] was over 100 µM, the GI50 [14] was > 100 µM (inactive) and the GI50 [15] was 72.1 µM (inactive). The GI50 [16] was 24.5 µM (inactive), the GI50 [17] was > 100 µM (inactive) and the GI50 [18] was 47.6 µM (inactive). For the same molecule, the GI50 [19] was 35.2 µM (inactive), the GI50 [20] was 17.9 µM (inactive) and the GI50 [21] was > 100 µM (inactive). For the same molecule, the GI50 [22] was 40.8 µM (inactive), the GI50 [23] was > 100 µM (inactive) and the GI50 [24] was > 100 µM (inactive). For the same molecule, the GI50 [25] was 24.1 µM (inactive), the GI50 [26] was > 100 µM (inactive) and the GI50 [27] was > 100 µM (inactive). The GI50 [28] was 25.2 µM (inactive), the GI50 [29] was > 100 µM (inactive) and the GI50 [30] was 71 µM (inactive). The GI50 [31] was 49.1 µM (inactive), the GI50 [32] was 45.1 µM (inactive) and the GI50 [33] was > 100 µM (inactive). The GI50 [34] was 29.7 µM (inactive), the GI50 [35] was 39.5 µM (inactive) and the GI50 [36] was 19.4 µM (inactive). The GI50 [37] was > 100 µM (inactive), the GI50 [38] was 13.8 µM (inactive) and the GI50 [39] was > 100 µM (inactive). For the same molecule, the GI50 [40] was > 100 µM (inactive), the GI50 [41] was 67.1 µM (inactive) and the GI50 [42] was 66.1 µM (inactive). The GI50 [43] was 53.8 µM (inactive), the GI50 [44] was 15.1 µM (inactive) and the GI50 [45] was > 100 µM (inactive). The GI50 [46] was > 100 µM (inactive), the GI50 [47] was > 100 µM (inactive) and the GI50 [48] was 28.6 µM (inactive). For the same molecule, the GI50 [49] was 42.5 µM (inactive), the GI50 [50] was 49.3 µM (inactive) and the GI50 [51] was 11.5 µM (inactive). For the same molecule, the GI50 [52] was > 100 µM (inactive), the GI50 [53] was 81.3 µM (inactive) and the GI50 [54] was > 100 µM (inactive). For the same molecule, the GI50 [55] was 29.2 µM (inactive), the GI50 [56] was > 100 µM (inactive) and the GI50 [57] was > 100 µM (inactive). The GI50 [58] was > 100 µM (inactive).
